For experiment [1], the system named is eIF2α in HEK293-EGFP-eIF2α cells. The experiment in a line: PERK Cellular Assay (HEK293-EGFP-eIF2α cells, tunicamycin-induced ER stress, TR-FRET). The class given is cell-based. The settings on record: tunicamycin 2 hours. The essentials:
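Cells pre-incubated with inhibitor 30 min at 37 °C, then ER stress induced with […] tunicamycin for 2 h. TR-FRET read on lysates; ratio normalized to DMSO control as percent inhibition over a 10-point, 3-fold dilution series; IC50 from 4-parameter logistic fit.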

Experiment [2] addresses Recombinant human EIF2AK3 (PERK) catalytic domain (amino acids 536-1116) (Homo sapiens (Human), UniProt Q9NZJ5). The experiment in a line: PERK In Vitro Activity Assay (isolated), TR-FRET kinase assay. The settings on record: isolated PERK enzyme, 1.5 μM ATP, read-out: Biochemical IC50. In outline: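 Recombinant PERK catalytic domain was incubated with 100–200 nM GFP-eIF2a substrate in 50 mM HEPES pH 7.5, 10 mM MgCl2, 1.0 mM EGTA and 0.01% Brij-35 for 45 min at room temperature. After a 10 mM EDTA stop, 2 nM Tb-anti-phospho-eIF2a was added for 90 min, and IC50 was fitted from TR-FRET ratios by 4-parameter logistic regression.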

pIC50: −log10 of the molar value.

Recombinant human EIF2AK3 (PERK) catalytic domain (amino acids 536-1116), sequence (Q9NZJ5 536-1116): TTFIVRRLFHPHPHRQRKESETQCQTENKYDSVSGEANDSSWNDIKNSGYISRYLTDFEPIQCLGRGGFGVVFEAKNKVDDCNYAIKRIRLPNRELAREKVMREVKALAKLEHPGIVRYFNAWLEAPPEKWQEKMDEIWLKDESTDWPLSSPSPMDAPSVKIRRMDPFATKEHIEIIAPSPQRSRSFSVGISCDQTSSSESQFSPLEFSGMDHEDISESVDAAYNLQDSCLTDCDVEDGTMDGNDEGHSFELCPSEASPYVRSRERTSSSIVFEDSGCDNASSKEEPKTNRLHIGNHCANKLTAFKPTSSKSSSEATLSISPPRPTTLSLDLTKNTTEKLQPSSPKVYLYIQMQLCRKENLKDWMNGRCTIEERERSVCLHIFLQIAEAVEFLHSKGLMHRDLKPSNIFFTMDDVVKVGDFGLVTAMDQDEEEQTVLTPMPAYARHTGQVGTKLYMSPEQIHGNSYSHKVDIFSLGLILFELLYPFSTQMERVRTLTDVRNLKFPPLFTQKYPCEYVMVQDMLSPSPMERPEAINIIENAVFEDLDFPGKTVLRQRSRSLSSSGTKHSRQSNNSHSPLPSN

For `[2H]C([2H])([2H])c1nc(-c2ccc(NC(=O)C(O)c3cc(F)cc(F)c3)cc2F)c2c(N)ncc(C)n12` (stereo not shown) [Example 105, N-[4-[8-amino-5-methyl-3-(trideuteriomethyl)imidazo[1,5-a]pyrazin-1-yl]-3-fluoro-phenyl]-2-(3,5-difluoro-phenyl)-2-hydroxy-acetamide], the figures for the pIC50 in experiment [1] and in experiment [2] were 7.30 to 7.59 and 7.60 to 9.00, respectively.
The corresponding values for `[2H]C([2H])([2H])c1nc(-c2ccc(NC(=O)C(O)c3cc(F)cc(F)c3)cc2F)c2c(N)ncc(C(F)(F)F)n12` (stereo not shown) [Example 106, N-[4-[8-amino-3-(trideuteriomethyl)-5-(trifluoromethyl)imidazo[1,5-a]pyrazin-1-yl]-3-fluoro-phenyl]-2-(3,5-difluoro-phenyl)-2-hydroxy-acetamide] are 7.60 to 9.00 and 7.60 to 9.00.
For `[2H]C([2H])([2H])c1nc(-c2ccc(NC(=O)C(O)c3cc(F)cc(F)c3)cc2F)c2c(N)ncc(C(F)(F)F)n12` (stereo not shown) [Example 107, N-[4-[8-amino-3-(trideuteriomethyl)-5-(trifluoromethyl)imidazo[1,5-a]pyrazin-1-yl]-3-fluoro-phenyl]-2-(3,5-difluoro-phenyl)-2-hydroxy-acetamide], in that order: 7.30 to 7.59 and 7.60 to 9.00.
On to `[2H]C([2H])([2H])c1nc(-c2ccc(NC(=O)C(O)c3cc(F)cc(F)c3)cc2F)c2c(N)ncc(Cl)n12` (stereo not shown) [Example 108, N-[4-[8-amino-5-chloro-3-(trideuteriomethyl)imidazo[1,5-a]pyrazin-1-yl]-3-fluoro-phenyl]-2-(3,5-difluoro-phenyl)-2-hydroxy-acetamide], for which the pIC50 in experiment [1] (2 h) and in experiment [2] was 7.60 to 9.00 each time.
In the case of `[2H]C([2H])([2H])c1nc(-c2ccc(NC(=O)C(O)c3cc(F)cc(C(F)(F)F)c3)cc2F)c2c(N)ncc(C)n12` (stereo not shown) [Example 110, N-[4-[8-amino-5-methyl-3-(trideuteriomethyl)imidazo[1,5-a]pyrazin-1-yl]-3-fluoro-phenyl]-2-[3-fluoro-5-(trifluoromethyl)phenyl]-2-hydroxy-acetamide], the pIC50 in experiment [1] and in experiment [2] was 7.60 to 9.00 each time.
For `[2H]C([2H])([2H])c1nc(-c2ccc(NC(=O)C(O)c3cc(F)cc(C(F)(F)F)c3)cc2F)c2c(N)ncc(C)n12` (stereo not shown) [Example 111, N-[4-[8-amino-5-methyl-3-(trideuteriomethyl)imidazo[1,5-a]pyrazin-1-yl]-3-fluoro-phenyl]-2-[3-fluoro-5-(trifluoromethyl)phenyl]-2-hydroxy-acetamide], the pIC50 in experiment [1] is 7.30 to 7.59; in experiment [2] it was 7.60 to 9.00.
The corresponding values for `[2H]C([2H])([2H])c1nc(-c2ccc(NC(=O)C(O)c3cc(F)cc(C(F)(F)F)c3)cc2F)c2c(N)ncc(C(F)(F)F)n12` (stereo not shown) [Example 112, N-[4-[8-amino-3-(trideuteriomethyl)-5-(trifluoromethyl)imidazo[1,5-a]pyrazin-1-yl]-3-fluoro-phenyl]-2-[3-fluoro-5-(trifluoromethyl)phenyl]-2-hydroxy-acetamide] are 7.60 to 9.00 and 7.60 to 9.00.
The corresponding values for `[2H]C([2H])([2H])c1nc(-c2ccc(NC(=O)C(O)c3cc(F)cc(C(F)(F)F)c3)cc2F)c2c(N)ncc(C(F)(F)F)n12` (stereo not shown) [Example 113, N-[4-[8-amino-3-(trideuteriomethyl)-5-(trifluoromethyl)imidazo[1,5-a]pyrazin-1-yl]-3-fluoro-phenyl]-2-[3-fluoro-5-(trifluoromethyl)phenyl]-2-hydroxy-acetamide] are 6.60 to 7.00 and 7.00 to 7.29.
On to `[2H]C([2H])([2H])c1nc(-c2ccc(NC(=O)C(O)c3cc(F)cc(C(F)(F)F)c3)cc2F)c2c(N)ncc(Cl)n12` (stereo not shown) [Example 114, N-[4-[8-amino-5-chloro-3-(trideuteriomethyl)imidazo[1,5-a]pyrazin-1-yl]-3-fluoro-phenyl]-2-[3-fluoro-5-(trifluoromethyl)phenyl]-2-hydroxy-acetamide], for which the pIC50 in experiment [1] and in experiment [2] was 7.60 to 9.00 in each case.
In the case of `[2H]C([2H])([2H])c1nc(-c2ccc(NC(=O)C(O)c3cc(F)cc(C(F)(F)F)c3)cc2F)c2c(N)ncc(Cl)n12` (stereo not shown) [Example 115, N-[4-[8-amino-5-chloro-3-(trideuteriomethyl)imidazo[1,5-a]pyrazin-1-yl]-3-fluoro-phenyl]-2-[3-fluoro-5-(trifluoromethyl)phenyl]-2-hydroxy-acetamide], the pIC50 in experiment [1] is 7.30 to 7.59; in experiment [2], 7.60 to 9.00.
For the compound `[2H]C([2H])([2H])c1nc(-c2ccc(NC(=O)C(O)c3cc(F)cc(C(F)(F)F)c3)cc2F)c2c(N)nc(C)cn12` (stereo not shown) [Example 116, N-[4-[8-amino-6-methyl-3-(trideuteriomethyl)imidazo[1,5-a]pyrazin-1-yl]-3-fluoro-phenyl]-2-[3-fluoro-5-(trifluoromethyl)phenyl]-2-hydroxy-acetamide], the pIC50 in experiment [1] and in experiment [2] was 7.60 to 9.00 each time.
For the compound `[2H]C([2H])([2H])c1nc(-c2ccc(NC(=O)C(O)c3cc(F)cc(C(F)(F)F)c3)cc2F)c2c(N)nc(C)cn12` (stereo not shown) [Example 117, N-[4-[8-amino-6-methyl-3-(trideuteriomethyl)imidazo[1,5-a]pyrazin-1-yl]-3-fluoro-phenyl]-2-[3-fluoro-5-(trifluoromethyl)phenyl]-2-hydroxy-acetamide], the pIC50 in experiment [1] is 6.30 to 6.60; in experiment [2], 7.00 to 7.29.
In the case of `[2H]C([2H])([2H])c1nc(-c2ccc(NC(=O)C(O)c3cccc(F)c3)c(F)c2)c2c(N)ncc(C)n12` (stereo not shown) [Example 122, N-[4-[8-amino-5-methyl-3-(trideuteriomethyl)imidazo[1,5-a]pyrazin-1-yl]-2-fluoro-phenyl]-2-(3-fluorophenyl)-2-hydroxy-acetamide], the pIC50 in experiment [1] is 6.30 to 6.60; in experiment [2], 7.30 to 7.59.
Take `[2H]C([2H])([2H])c1nc(-c2ccc(NC(=O)C(O)c3cccc(F)c3)c(F)c2)c2c(N)ncc(C)n12` (stereo not shown) [Example 123, N-[4-[8-amino-5-methyl-3-(trideuteriomethyl)imidazo[1,5-a]pyrazin-1-yl]-2-fluoro-phenyl]-2-(3-fluorophenyl)-2-hydroxy-acetamide]: the pIC50 in experiment [1] and in experiment [2] was 7.60 to 9.00 throughout.
With `Cc1cnc(N)c2c(-c3ccc(NC(=O)C(O)c4cccc(F)c4)c(F)c3)nc(C)n12` (stereo not shown) [Example 124, N-(4-(8-amino-3,5-dimethyl-imidazo[1,5-a]pyrazin-1-yl)-2-fluorophenyl)-2-(3-fluorophenyl)-2-hydroxy-acetamide], the pIC50 in experiment [1] was 6.00 to 6.30; in experiment [2], 7.30 to 7.59.
The corresponding values for `Cc1cnc(N)c2c(-c3ccc(NC(=O)C(O)c4cccc(F)c4)c(F)c3)nc(C)n12` (stereo not shown) [Example 125, N-(4-(8-amino-3,5-dimethyl-imidazo[1,5-a]pyrazin-1-yl)-2-fluorophenyl)-2-(3-fluorophenyl)-2-hydroxy-acetamide] are 7.60 to 9.00 and 7.60 to 9.00.
For `Cc1cnc(N)c2c(-c3ccc(NC(=O)C(O)c4cccc(F)c4)cc3OC(F)(F)F)nc(C)n12` (stereo not shown) [Example 126, N-(4-(8-amino-3,5-dimethyl-imidazo[1,5-a]pyrazin-1-yl)-3-(trifluoromethoxy)phenyl)-2-(3-fluorophenyl)-2-hydroxyacetamide], in that order: 6.00 to 6.30 and 6.60 to 7.00.
The corresponding values for `Cc1cnc(N)c2c(-c3ccc(NC(=O)C(O)c4cccc(F)c4)cc3OC(F)(F)F)nc(C)n12` (stereo not shown) [Example 127, N-(4-(8-amino-3,5-dimethyl-imidazo[1,5-a]pyrazin-1-yl)-3-(trifluoromethoxy)phenyl)-2-(3-fluorophenyl)-2-hydroxyacetamide] are 6.60 to 7.00 and 7.60 to 9.00.
In the case of `Cc1cn2c(C)nc(-c3ccc(NC(=O)C(O)c4cccc(F)c4)c(F)c3F)c2c(N)n1` (stereo not shown) [Example 128, N-(4-(8-amino-3,6-dimethyl-imidazo[1,5-a]pyrazin-1-yl)-2,3-difluoro-phenyl)-2-(3-fluorophenyl)-2-hydroxyacetamide], the pIC50 in experiment [1] and in experiment [2] was 7.60 to 9.00 in each case.
For the compound `Cc1cn2c(C)nc(-c3ccc(NC(=O)C(O)c4cccc(F)c4)c(F)c3F)c2c(N)n1` (stereo not shown) [Example 129, N-(4-(8-amino-3,6-dimethyl-imidazo[1,5-a]pyrazin-1-yl)-2,3-difluoro-phenyl)-2-(3-fluorophenyl)-2-hydroxyacetamide], the pIC50 in experiment [1] is < 5.30; in experiment [2], 6.00 to 6.30.
The corresponding values for `[2H]C([2H])([2H])c1nc(-c2ccc(NC(=O)C(O)c3cccc(F)c3)c(F)c2F)c2c(N)nc(C)cn12` (stereo not shown) [Example 130, N-[4-[8-amino-6-methyl-3-(trideuteriomethyl)imidazo[1,5-a]pyrazin-1-yl]-2,3-difluoro-phenyl]-2-(3-fluoro-phenyl)-2-hydroxy-acetamide] are 7.60 to 9.00 and 7.60 to 9.00.
The corresponding values for `[2H]C([2H])([2H])c1nc(-c2ccc(NC(=O)C(O)c3cccc(F)c3)c(F)c2F)c2c(N)nc(C)cn12` (stereo not shown) [Example 131, N-[4-[8-amino-6-methyl-3-(trideuteriomethyl)imidazo[1,5-a]pyrazin-1-yl]-2,3-difluoro-phenyl]-2-(3-fluoro-phenyl)-2-hydroxy-acetamide] are 5.40 to 5.52 and 6.00 to 6.30.
Consider `[2H]C([2H])([2H])c1nc(-c2ccc(NC(=O)C(O)c3cccc(F)c3)c(F)c2F)c2c(N)ncc(C)n12` (stereo not shown) [Example 132, N-[4-[8-amino-5-methyl-3-(trideuteriomethyl)imidazo[1,5-a]pyrazin-1-yl]-2,3-difluoro-phenyl]-2-(3-fluoro-phenyl)-2-hydroxy-acetamide], for which the pIC50 in experiment [1] and in experiment [2] was 7.60 to 9.00 in each case.

(Values after patent publication US12331054B2, “Perk inhibiting imidazolopyrazine compounds” (HiberCell, Inc., priority 2019, dated 2025).)
